Test results taken from ChEMBL document CHEMBL1201862, “PubChem BioAssay data set” (2004).
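Compound exposure: 48 hours, 5 concentrations, 96-well plates. GI50 is the concentration that inhibits growth by half.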 Activity calls are given as the source filed them. Cut-off read from the data, not from the text of the source: active = GI50 up to about 1.1 µM and inactive = higher. Square brackets hold non-standard residues; d marks the D form. Peptide text beside a SMILES is read from it. * marks the point of attachment. NMeV = CN[C@H](C(=O)O)C(C)C; X28 = COc1ccc(CN*)c(OC)c1; Octanoyl = CCCCCCCC(=O)*; dNMeA = CN[C@H](C)C(=O)O

Columns and labels:
Experiment in all cases: DTP human tumour cell line panel, 48 h
TK-10 = system: TK-10
DU-145 = system: DU-145
SK-MEL-5 = system: SK-MEL-5
Malme-3M = system: Malme-3M
SN12C = system: SN12C
SNB-75 = system: SNB-75
HOP-62 = system: HOP-62
A498 = system: A498
OVCAR-5 = system: OVCAR-5
CCRF-CEM = system: CCRF-CEM
NCI-H522 = system: NCI-H522
BT-549 = system: BT-549
NCI-H226 = system: NCI-H226
SF-295 = system: SF-295
SK-OV-3 = system: SK-OV-3
NCI-H23 = system: NCI-H23
HL-60 = system: HL-60
NCI-H460 = system: NCI-H460
SK-MEL-2 = system: SK-MEL-2
HT-29 = system: HT-29

Row | SMILES | GI50 (TK-10) | GI50 (DU-145) | GI50 (SK-MEL-5) | GI50 (Malme-3M) | GI50 (SN12C) | GI50 (SNB-75) | GI50 (HOP-62) | GI50 (A498) | GI50 (OVCAR-5) | GI50 (CCRF-CEM) | GI50 (NCI-H522) | GI50 (BT-549) | GI50 (NCI-H226) | GI50 (SF-295) | GI50 (SK-OV-3) | GI50 (NCI-H23) | GI50 (HL-60) | GI50 (NCI-H460) | GI50 (SK-MEL-2) | GI50 (HT-29)
1 | Cn1c2c(c3c(=O)[nH]ncc31)CCc1ccccc1-2 | 17.7 µM (inactive) | 35.7 µM (inactive) | 17.8 µM (inactive) | 31.3 µM (inactive) | 34.8 µM (inactive) | 21.2 µM (inactive) | 78.5 µM (inactive) | 16.3 µM (inactive) | 45.6 µM (inactive) | 20.8 µM (inactive) | 42.5 µM (inactive) | 23.8 µM (inactive) | 29.4 µM (inactive) | 32.9 µM (inactive) | 61.1 µM (inactive) | 26.1 µM (inactive) | 27 µM (inactive) | 16 µM (inactive) | 24.6 µM (inactive) | 32.6 µM (inactive)
2 | O=C(NC1(c2cc3ccccc3s2)CCCCC1)C1CCC1 | > 100 µM (inactive) | > 100 µM (inactive) | > 100 µM (inactive) | > 100 µM (inactive) | > 100 µM (inactive) | 46.7 µM (inactive) | > 100 µM (inactive) | > 100 µM (inactive) | > 100 µM (inactive) | > 100 µM (inactive) | > 100 µM (inactive) | > 100 µM (inactive) | > 100 µM (inactive) | > 100 µM (inactive) | > 100 µM (inactive) | > 100 µM (inactive) | > 100 µM (inactive) | > 100 µM (inactive) | > 100 µM (inactive) | > 100 µM (inactive)
3 | O=C(CCCN1CCC(Nc2ccccc2)(c2nnnn2C2CCCCC2)CC1)c1ccc(F)cc1 | 12.9 µM (inactive) | 3.81 µM (inactive) | 1.64 µM (inactive) | 3.24 µM (inactive) | 10.6 µM (inactive) | 10.2 µM (inactive) | 6.17 µM (inactive) | > 10 µM (inactive) | 7.23 µM (inactive) | 16.4 µM (inactive) | 6.55 µM (inactive) | 7.96 µM (inactive) | 17.9 µM (inactive) | 14.5 µM (inactive) | 13.3 µM (inactive) | 13.7 µM (inactive) | 4.73 µM (inactive) | 8.65 µM (inactive) | 4.21 µM (inactive) | 3.03 µM (inactive)
4 | C=C(CN(C)C)C(=O)c1ccc(C)cc1C | 8.73 µM (inactive) | 17.6 µM (inactive) | 14.1 µM (inactive) | 5.7 µM (inactive) | 11.8 µM (inactive) | 16.5 µM (inactive) | 32.2 µM (inactive) | 17.2 µM (inactive) | 14.1 µM (inactive) | 0.574 µM (active) | 2.9 µM (inactive) | 3.59 µM (inactive) | 15.5 µM (inactive) | 16.3 µM (inactive) | 18.5 µM (inactive) | 10.6 µM (inactive) | 0.46 µM (active) | 18.8 µM (inactive) | 18 µM (inactive) | 7.66 µM (inactive)
5 | O=C1C2C(c3ccccc3)NC(c3ccccc3)C1C(c1ccccc1)NC2c1ccccc1 (centres undefined) | > 100 µM (inactive) | > 100 µM (inactive) | > 100 µM (inactive) | > 100 µM (inactive) | > 100 µM (inactive) | > 100 µM (inactive) | > 100 µM (inactive) | > 100 µM (inactive) | > 100 µM (inactive) | > 100 µM (inactive) | > 100 µM (inactive) | > 100 µM (inactive) | > 100 µM (inactive) | > 100 µM (inactive) | > 100 µM (inactive) | > 100 µM (inactive) | > 100 µM (inactive) | > 100 µM (inactive) | > 100 µM (inactive) | > 100 µM (inactive)
6 | CCOC(=O)Cn1nc2ccc(Nc3nc4ccccc4nc3C(=O)OCC)cc2n1 | 38.4 µM (inactive) | > 100 µM (inactive) | > 100 µM (inactive) | 45.6 µM (inactive) | > 100 µM (inactive) | 16.8 µM (inactive) | 68.7 µM (inactive) | 60.1 µM (inactive) | > 100 µM (inactive) | > 100 µM (inactive) | 57 µM (inactive) | > 100 µM (inactive) | 59.8 µM (inactive) | 45.1 µM (inactive) | 49.3 µM (inactive) | 76.6 µM (inactive) | > 100 µM (inactive) | > 100 µM (inactive) | 54.6 µM (inactive) | 42 µM (inactive)
7 | C=C1C(=O)O[C@H]2[C@H]1[C@H](OC(=O)/C(C)=C\C)C[C@]1(CO1)[C@@H]1[C@H](OC(C)=O)C=C(C)[C@]21O [EUPAROTIN ACETATE] | 7.73 µM (inactive) | 15.4 µM (inactive) | 17 µM (inactive) | 13.5 µM (inactive) | 14 µM (inactive) | 67.5 µM (inactive) | 74 µM (inactive) | 1.24 µM (inactive) | 25.4 µM (inactive) | 2.36 µM (inactive) | 3.31 µM (inactive) | 8.13 µM (inactive) | > 43 µM (inactive) | > 83.9 µM (inactive) | > 59.6 µM (inactive) | 23.2 µM (inactive) | 2.66 µM (inactive) | 28 µM (inactive) | 25.5 µM (inactive) | 12.4 µM (inactive)
8 | Nc1ncnc2c1ccn2C1OC2COP(=O)(O)OC2C1O (centres undefined) | 0.25 µM (active) | 0.723 µM (active) | 0.327 µM (active) | 0.27 µM (active) | 0.207 µM (active) | 0.231 µM (active) | 0.501 µM (active) | 1.15 µM (inactive) | 0.849 µM (active) | 0.773 µM (active) | 0.14 µM (active) | 0.482 µM (active) | 2.9 µM (inactive) | 0.641 µM (active) | 0.197 µM (active) | 0.885 µM (active) | < 0.0476 µM (active) | 0.168 µM (active) | 0.458 µM (active) | 0.137 µM (active)
9 | CCCCCCCC(=O)N[C@H](C(=O)N[C@H](C(=O)N(C)[C@H](C(=O)N1CCC[C@H]1C(=O)N(C)[C@H](C)C(=O)NCc1ccc(OC)cc1OC)C(C)C)C(C)C)C(C)C (Octanoyl-VV[NMeV]P[dNMeA]-X28) | 22.3 µM (inactive) | 25.3 µM (inactive) | 3.3 µM (inactive) | 8.17 µM (inactive) | 18 µM (inactive) | 21.3 µM (inactive) | 20.4 µM (inactive) | 1.95 µM (inactive) | 25.5 µM (inactive) | 11.5 µM (inactive) | 7.21 µM (inactive) | 11.8 µM (inactive) | 4.95 µM (inactive) | 7.96 µM (inactive) | 28.9 µM (inactive) | 13.6 µM (inactive) | 3.68 µM (inactive) | 8.34 µM (inactive) | 12.9 µM (inactive) | 4.23 µM (inactive)
10 | C=CCN1C(=O)CS/C1=N\NC(=O)CSc1nc2ccccc2c(=O)n1CC | > 100 µM (inactive) | > 100 µM (inactive) | > 100 µM (inactive) | > 100 µM (inactive) | > 100 µM (inactive) | > 100 µM (inactive) | 84.1 µM (inactive) | 35 µM (inactive) | 84.1 µM (inactive) | > 100 µM (inactive) | > 100 µM (inactive) | > 100 µM (inactive) | > 100 µM (inactive) | > 100 µM (inactive) | > 100 µM (inactive) | > 100 µM (inactive) | > 100 µM (inactive) | 5.37 µM (inactive) | > 100 µM (inactive) | > 100 µM (inactive)
11 | O=C1OC(c2ccccc2)=N/C1=C\c1ccc(Br)cc1 | > 100 µM (inactive) | > 100 µM (inactive) | > 100 µM (inactive) | 74.8 µM (inactive) | > 100 µM (inactive) | > 100 µM (inactive) | > 100 µM (inactive) | > 100 µM (inactive) | > 100 µM (inactive) | 26.4 µM (inactive) | > 100 µM (inactive) | > 100 µM (inactive) | > 100 µM (inactive) | > 100 µM (inactive) | > 100 µM (inactive) | > 100 µM (inactive) | > 100 µM (inactive) | > 100 µM (inactive) | > 100 µM (inactive) | > 100 µM (inactive)
12 | COC(=O)C1=C(C)NC2=C(C(=O)c3ccccc32)C1c1c[nH]nc1-c1ccccc1 (centres undefined) |  | > 100 µM (inactive) | 31.8 µM (inactive) | 25.2 µM (inactive) | 72.9 µM (inactive) | 13.3 µM (inactive) | 64.9 µM (inactive) | 48.5 µM (inactive) | > 100 µM (inactive) | 40.3 µM (inactive) | 19.7 µM (inactive) | > 100 µM (inactive) | 41.2 µM (inactive) | > 100 µM (inactive) | > 100 µM (inactive) | > 100 µM (inactive) | 39.8 µM (inactive) | 51.9 µM (inactive) | 33.7 µM (inactive) | 24.3 µM (inactive)
13 | O=c1c2ncn(C3CC(O)C(CO)O3)c2nnn1Cc1ccccc1[N+](=O)[O-] (centres undefined) | > 100 µM (inactive) | > 100 µM (inactive) | > 100 µM (inactive) | > 100 µM (inactive) | > 100 µM (inactive) | > 100 µM (inactive) | > 100 µM (inactive) | > 100 µM (inactive) | > 100 µM (inactive) | > 100 µM (inactive) | > 100 µM (inactive) | > 100 µM (inactive) | 43.6 µM (inactive) | > 100 µM (inactive) | > 100 µM (inactive) | > 100 µM (inactive) | 57.3 µM (inactive) | > 100 µM (inactive) | 4.78 µM (inactive) | > 100 µM (inactive)
14 | C=CCN(c1cc(OC)c2[nH]c(C(=O)OCC)c(C)c2c1[N+](=O)[O-])S(C)(=O)=O | 54.1 µM (inactive) | 24.7 µM (inactive) | 16.1 µM (inactive) | 15.7 µM (inactive) | 19.6 µM (inactive) | 15.2 µM (inactive) | 35.6 µM (inactive) | 25.8 µM (inactive) | 29.3 µM (inactive) | 26.3 µM (inactive) | 17.7 µM (inactive) | 22.1 µM (inactive) | 1.04 µM (active) | 28.5 µM (inactive) | 36.3 µM (inactive) | 28.4 µM (inactive) | 15.8 µM (inactive) | 30.3 µM (inactive) | 25.1 µM (inactive) | 18.2 µM (inactive)
